Assay [1] has as its target T1, Bcl-xL/Bak complex (Homo sapiens, UniProt Q07817).
T1 construct: made in house
The experiment in a line: Fluorescence polarization competition assay (displacement of fluorescein-labeled Bak peptide from Bcl-xL). The note with it: for Ki / K1 ± S.D.: 15 nM Fl-Bak, 184 nM Bcl-xL, 10 mM PBS pH 7.4, 25° C., mean of three independent experiments; for Ki: read-out: K1 ± S.D.; for affinity / activity in disrupting the Bcl-xL/Bak interaction (in words): summary of Table 1. The assay is classed as binding. The procedure: Fluorescence polarization experiments were conducted on a Photon Technology International instrument using a 0.3 cm path length cuvette.
(Polarisation of emitted light reports the rotation of a fluorescent probe.)

In assay [2] the target is 15N-labeled Bcl-xL (Homo sapiens, UniProt Q07817). The experiment in a line: (15N,1H)-2D-HSQC amide chemical shift perturbation mapping. The assay is classed as binding. The note with it: 2 mM Bcl-xL, 0, 1, 2 mM compound, 10% DMSO/D2O, 25° C., PBS pH 7.0. The procedure:
(^15N, ^1H)-2D-HSQC spectra were recorded on a Varian DPX-600 spectrometer. The concentration of Bcl-xL was 2 mM, with 0, 1 mM, 2 mM 3-26, respectively, in 10% DMSO/D2O (25° C., 10.0 mM PBS, pH 7.0).
To structurally probe the binding mode of the terephthalamide, (^15N, ^1H)-2D-amide chemical shift perturbation mapping with ^15N-labeled Bcl-xL were performed as above. Addition of compound 3-26 led to shifts in a number of residues on the surface of Bcl-xL. […] These affected residues all lie in the shallow cleft on the protein into which the Bak helix binds.

Values joined by “and” are separate entries in the source; they are usually repeats but may differ in a detail not shown here. Identical values can stand only once.

T1 sequence (Q07817 whole entry, species assumed, one chain of several): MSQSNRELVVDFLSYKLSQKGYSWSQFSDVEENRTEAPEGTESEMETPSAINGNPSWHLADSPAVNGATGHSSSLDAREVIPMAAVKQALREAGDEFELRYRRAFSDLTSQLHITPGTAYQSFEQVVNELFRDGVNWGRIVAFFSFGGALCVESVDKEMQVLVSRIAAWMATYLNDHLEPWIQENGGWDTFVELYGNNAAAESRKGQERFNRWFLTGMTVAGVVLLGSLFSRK
Sequence of 15N-labeled Bcl-xL (Q07817 whole entry): as the sequence (Q07817 whole entry, species assumed, one chain of several) above

Regarding `CCN(CC)C(=O)c1ccc(C(=O)N[C@@H](C)C(=O)OC)c(OC(C)C)c1` [Compound 3-37, (S)-2-(4-Diethylcarbamoyl-2-isopropoxy-benzoylamino)-propionic acid methyl ester], in assay [1], the Ki is 2.44 ± 0.947 µM and the “affinity / activity in disrupting the Bcl-xL/Bak interaction (in words)” value (“affinity / activity” below) was “low micro-molar Ki values”.

For `COC(=O)[C@H](C)NC(=O)c1ccc(C(=O)N(CC(C)C)CC(C)C)cc1OC(C)C` [Compound 3-39, (S)-2-(4-Diisobutylcarbamoyl-2isopropoxy-benzoylamino)-propionic acid methyl ester], the Ki in assay [1] was determined as 8.76 ± 2.78 µM.

Consider `CC(C)C[C@H](NC(=O)c1ccc(C(=O)N(c2ccccc2)c2ccccc2)cc1OC(C)C)C(=O)O` [Compound 3-43, (S)-2-(4-Diphenylcarbamoyl-2-isopropoxy-benzoylamino)-4-methyl-pentanoic acid], for which, in assay [1], the Ki was determined as 780 ± 174 µM and the “affinity / activity” value was “most of the affinity was lost”.

Consider `CC(C)Oc1cc(C(=O)N(c2ccccc2)c2ccccc2)ccc1C(=O)N[C@@H](C)C(=O)O` [Compound 3-42, (S)-2-(4-Diphenylcarbamoyl-2-isopropoxy-benzoylamino)-propionic acid], for which, in assay [1], the Ki stood at 260 ± 58 µM and the “affinity / activity” value was “most of the affinity was lost”.

Take `CC(C)Oc1cc(C(=O)N(c2ccccc2)c2ccccc2)ccc1C(=O)N[C@@H](Cc1ccccc1)C(=O)O` [Compound 3-45, (S)-2-(4-Diphenylcarbamoyl-2-isopropoxy-benzoylamino)-3-phenyl-propionic acid]: in assay [1], the “K1 ± S.D.” value is recorded as “No affinity” and the “affinity / activity” value is given as “most of the affinity was lost”.

Turning to `COC(=O)[C@H](CC(C)C)NC(=O)c1ccc(C(=O)N(CC(C)C)[C@@H](C)C(=O)OC)cc1OC(C)C` [Compound 3-22, (S)-2-{4-[Isobutyl-((S)-1-methoxycarbonyl-ethyl)-carbamoyl]-2-isopropoxy-benzoylamino}-4-methyl-pentanoic acid methyl ester], in assay [1], the “K1 ± S.D.” value is recorded as “No affinity” and the “affinity / activity” value is “did not show activity”.

For the compound `COC(=O)[C@H](C)NC(=O)c1ccc(C(=O)N(C)C)cc1OC(C)C` [Compound 3-33, (S)-2-(4-Dimethylcarbamoyl-2-isopropoxy-benzoylamino)-propionic acid methyl ester], the Ki in assay [1] was 8.34 ± 1.61 µM.

Take `COC(=O)[C@H](CC(C)C)NC(=O)c1ccc(C(=O)N(C(C)C)C(C)C)cc1OC` [Compound 3-26, (S)-2-(4-Diisopropylcarbamoyl-2-methoxy-benzoylamino)-4-methyl-pentanoic acid methyl ester]: the Ki in assay [1] came out at 1.85 ± 0.318 µM. Besides, the “amide chemical shift changes of Bcl-xL residues on addition of inhibitor” value in assay [2] is “significant chemical shift changes”.

With `CC(C)CC(NC(=O)c1ccc(C(=O)NCC(=O)O)cc1O)C(=O)O` (centres unmarked) [Compound 3-46], the “K1 ± S.D.” value in assay [1] is given as “No affinity”.

On to `CC(C)C[C@H](NC(=O)c1ccc(C(=O)N(C(C)C)C(C)C)cc1NC(C)C)C(=O)O` [Compound 3-17, (S)-2-(4-Diisopropylcarbamoyl-2-isopropylamino-benzoylamino)-4-methyl-pentanoic acid], for which the Ki in assay [1] is 3.31 ± 0.345 µM. For the same compound, the “affinity less than 2-isopropoxy analogue 3-10” value in assay [1] (relative to 3-10) stood at 4 fold.

On to `COC(=O)[C@H](CC(C)C)NC(=O)c1ccc(C(=O)N(C(C)C)C(C)C)cc1OC(C)C` [Compound 3-9, (S)-2-(4-Diisopropylcarbamoyl-2-isopropoxy-benzoylamino)-4-methyl-pentanoic acid methyl ester], for which, in assay [1], the Ki is 0.78 µM and 0.781 µM; the “affinity / activity” value is “low micro-molar Ki values”.

On to `CC(C)C[C@H](NC(=O)c1ccc(C(=O)N(C(C)C)C(C)C)cc1OC(C)C)C(=O)O` [Compound 3-10], for which the Ki in assay [1] came to 0.839 ± 0.171 µM.

Turning to `CCN(CC)C(=O)c1ccc(C(=O)N[C@@H](CC(C)C)C(=O)OC)c(OC(C)C)c1` [Compound 3-38, (S)-2-(4-Diethylcarbamoyl-2-isopropoxy-benzoylamino)-4-methyl-pentanoic acid methyl ester], the Ki in assay [1] came to 11.4 ± 5.09 µM.

Consider `CC(C)Oc1cc(C(=O)N(C)C)ccc1C(=O)N[C@@H](Cc1ccccc1)C(=O)O` [Compound 3-35, (S)-2-(4-Dimethylcarbamoyl-2-isopropoxy-benzoylamino)-3-phenyl-propionic acid], for which the Ki in assay [1] amounted to 8.92 ± 3.59 µM.

With `COC(=O)[C@@H](NC(=O)c1ccc(C(=O)N(CC(C)C)CC(C)C)cc1OC(C)C)C(C)C` [Compound 3-41, (S)-2-(4-Diisobutylcarbamoyl-2-isopropoxy-benzoylamino)-3-methyl-butyric acid methyl ester], the Ki in assay [1] worked out at 138 ± 49.5 µM.

As to `COC(=O)[C@H](CC(C)C)NC(=O)c1ccc(C(=O)N(CC(C)C)CC(C)C)cc1OC(C)C` [Compound 3-40, (S)-2-(4-Diisobutylcarbamoyl-2-isopropoxy-benzoylamino)-4-methyl-pentanoic acid methyl ester], the Ki in assay [1] was determined as 8.36 ± 3.8 µM.

Turning to `COC(=O)[C@H](CC(C)C)NC(=O)c1ccc(C(=O)N(c2ccccc2)c2ccccc2)cc1OC(C)C` [Compound 3-44, (S)-2-(4-Diphenylcarbamoyl-2-isopropoxy-benzoylamino)-4-methyl-pentanoic acid methyl ester], in assay [1], the “K1 ± S.D.” value is “No affinity” and the “affinity / activity” value is given as “most of the affinity was lost”.
